Data set [1] can be described thus: Octanol-water partition coefficient, microscale shake-flask. The settings on record: for logD: octanol/ph 7.0 buffer. How it is done:
Measurement of Octanol-Water Partition Coefficients.
n-Octanol-water partition coefficients (P) were determined by a microscale shake-flask procedure, (Ford, H. et al Abstracts of Papers, 200th National Meeting of the American Chemical Society, Washington, D.C.; American Chemical Society: Washington, D.C., 1990; CARB 13) which was modification of an earlier method (Nahum, A. & Horvath, C. J. Chromatogr. 1980, 192, 315). A 20 μL aliquot of a 0.5 mg/mL DMSO solution of the dideoxynucleoside was dissolved in 1.0 mL of octanol-saturated, pH 7.0, 0.01M potassium phosphate buffer. This was mixed thoroughly with 1.0 ml of buffer-saturated n-octanol in a 2-mL Mixxor apparatus at 24°-26° C. and then allowed to stand for 15 min. The phases were separated, centrifuged at 600×g for 5 min, and the relative concentration of sample in each phase determined by HPLC analysis of a 50 μl aliquot. The partition coefficient was calculated by dividing the absolute area of the appropriate integrated peak from the octanol phase by that of the buffer phase (Table I).
Octanol/pH 7.0 buffer partition coefficients were determined using a newly developed microscale method. […] The addition of a methyl group normally increases the log P value of a compound by about 0.5.

The test system of data set [2] is HIV-1/IIIB (CD4^+ ATH8 cells). In words: HIV cytopathic effect inhibition assay in ATH8 cells (% protection). In kind it is cell-based. The settings on record: ATH8 cells, no additive. How it is done: HIV Cytopathic Effect Inhibition Assay.
The HIV cytopathic effect inhibition assay was performed as previously described. (Mitsuya, H. & Broder, S. Proc. Nat. Acad. Sci. USA 1986, 83, 1911) Briefly, 200,000 target CD4^+ ATH8 cells were exposed to cell-free HIV-1/IIIB at a dose of 43 (or 1087 for compound 1g) TCID50 (50% tissue culture infectious dose) for 1 h, resuspended in 2 ml of fresh culture media containing interleukin 2, and cultured at 37° C. with or without test compounds in 5% CO2 -containing humidified air. On day 8 in culture, the viable cells were counted by using the dye exclusion method. All compounds, including inactives, were evaluated a minimum of two times in separate experiments. Data reported in Table II are from representative tests. The % protection against the virus was determined by the following formula: 100 times [(the number of viable cells exposed to HIV-1 and cultured in the presence of the compound minus the number of viable cells exposed to HIV-1 and cultured in the absence of compound) divided by (the number of viable cells cultured alone minus the number of viable cells exposed to HIV-1 and cultured in the absence of the compound)]. The % toxicity of a compound on the target cells was determined by the following formula: 100 times [1 minus (the number of total viable cells cultured in the presence of the compound divided by the number of total viable cells cultured alone)]. Calculated percentages equal to or less than zero are expressed as 0%.
^a ATH8 cells were exposed to HIV1/IIIB per cell for 1 hr and
cultured in the presence of various concentrations of each compound. On
day 8, the total viable cells were counted. Orders of numbers in the
column for concentrations correspond to the orders of numbers in other
On the technique in general: Protection from cytopathic effect is a common read-out in antiviral testing.

Experimental findings from patent US5459256A, “Lipophilic, aminohydrolase-activated prodrugs” (priority 1991, dated 1995) are described below.

With `Cc1cn([C@H]2C[C@H](N=[N+]=[N-])[C@@H](CO)O2)c(=O)[nH]c1=O` [AZT, reference compound], in data set [1] (octanol and pH 7.0 buffer), the “partitioning (in words)” value was “partitions into octanol and pH 7.0 buffer almost equally”. Besides, in data set [1] (octanol/pH 7.0 buffer, 24°-26° C., Table I mean ± standard deviation of three determinations), the “Log P” value stood at 0.05 ± 0.01.
In the case of `OC[C@@H]1C[C@H](F)[C@H](n2cnc3cncnc32)O1` [Compound 1c, 9-(2',3'-dideoxy-2'-fluoro-β-D-arabinofuranosyl)-9-H-purine], the logD in data set [1] (pH 7, Log P) was -0.4 ± 0.01. The “anti-HIV activity (in words)” value in data set [2] is “abolished activity”.
In data set [1] (pH 7), `Cc1nc(N)c2ncn([C@@H]3O[C@H](CO)C[C@@H]3F)c2n1` [Compound 1d, 2-methyl-9-(2', 3'-dideoxy-2'-fluoro-β-D-arabinofuranosyl)adenine] gave a pH-dependent lipophilicity (logD) of 0.12 ± 0.02. The “anti-HIV activity (in words)” value in data set [2] is recorded as “the methyl group in the 2-position abolished activity”.
Regarding `CNc1nc(C)nc2c1ncn2[C@@H]1O[C@H](CO)C[C@@H]1F` [Compound 1e, 2,N^6 -Dimethyl-9-(2',3'-dideoxy-2'-fluoro-β-D-arabinofuranosyl)adenine], the logD in data set [1] (pH 7, Log P) stood at 0.64 ± 0.01. Also, the “anti-HIV activity (in words)” value in data set [2] is given as “the methyl group in the 2-position abolished activity”.
With `Cc1nc2c(N)ncnc2n1[C@@H]1O[C@H](CO)C[C@@H]1F` [Compound 1h, 8-Methyl-9-(2',3'-dideoxy-2'-fluoro-β-D-arabinofuranosyl)adenine], the pH-dependent lipophilicity (logD) in data set [1] (pH 7, Log P) stood at 0.1 ± 0.01.

The Log P is a log measure of how a compound divides between an organic and an aqueous phase. By logD is commonly meant lipophilicity at a set pH, counting ionised and neutral species. A high value points to higher lipophilicity.
